Results taken from patent publication US20240116946A1 (Gilead Sciences, Inc., priority 2022, published 2024).
Like-named read-outs stand apart in the source and are kept apart here.

Assays:
[1] = target: recombinant SARS-CoV-2 Main protease (Mpro) (Severe acute respiratory syndrome coronavirus 2 (2019-nCoV) (SARS-CoV-2), UniProt P0DTD1); test: Cov Mpro Biochemical IC50 Assay
SARS-CoV-2-NLuc = test: microbe, parasite or virus in culture; type: cell-based, SARS Coronavirus 2
[2] = recombinant SARS-CoV-2 Mpro, fluorogenic peptide substrate, read-out: MPro IC50
[3] = Severe acute respiratory syndrome coronavirus, 48 h, read-out: MPro EC50
[4] = recombinant SARS-CoV-2 Mpro 7.5 nM, fluorogenic peptide substrate 40 μM, read-out: MPro IC50
[5] = Severe acute respiratory syndrome coronavirus, 48 h; read-out: MPro EC50

N#Cc1ccccc1-c1ccc2c(=O)n(-c3cncc4ccccc34)c(=O)[nH]c2c1 [Example 65, 2-(3-(isoquinolin-4-yl)-2,4-dioxo-1,2,3,4-tetrahydroquinazolin-7-yl)benzonitrile]
IC50 [1, 2]: 108 nM | EC50 (SARS-CoV-2-NLuc; [3]): 286 nM

N#Cc1ccc(-c2ccc3c(=O)n(-c4cncc5ccccc45)c(=O)[nH]c3c2)cc1 [Example 35]
IC50 [1, 2]: > 100000 nM | EC50 (SARS-CoV-2-NLuc; [3]): > 50000 nM

COc1cnc(C#N)c(-c2cc3c(s2)c(=O)n(-c2cncc4ccccc24)c(=O)n3CCC#N)c1 [Example 837, 3-(1-(2-cyanoethyl)-3-(isoquinolin-4-yl)-2,4-dioxo-1,2,3,4-tetrahydrothieno[3,2-d]pyrimidin-6-yl)-5-methoxypicolinonitrile]
IC50 [1, 4]: 9.22 nM | EC50 (SARS-CoV-2-NLuc; [3]): 30.4 nM

Cc1cnnc(-n2c(=O)c3sc(-c4ccccc4Cl)cc3n(CCC#N)c2=O)c1 [Example 835]
IC50 [1, 4]: 9.44 nM | EC50 (SARS-CoV-2-NLuc; [5]): 28.1 nM

N#CCCn1c(=O)n(-c2cccnc2)c(=O)c2sc(-c3cc(F)c(F)cc3Cl)cc21 [Example 803]
IC50 [1, 4]: 25.9 nM | EC50 (SARS-CoV-2-NLuc; [5]): 91.5 nM

COc1ccc(Cl)c(-c2cc3[nH]c(=O)n(-c4cncc5cnn(CC(F)(F)F)c45)c(=O)c3s2)c1 [Example 500]
IC50 [1, 4]: 9.12 nM | EC50 (SARS-CoV-2-NLuc; [3]): 42.6 nM

N#CCCn1c(=O)n(-c2cnccn2)c(=O)c2sc(-c3ccc(F)cc3C#N)cc21 [Example 829]
IC50 [1, 4]: 420 nM | EC50 (SARS-CoV-2-NLuc; [5]): > 1000 nM

COC(=O)[C@H]1C[C@@H]1c1cncc(-n2c(=O)[nH]c3cc(-c4ccccc4Cl)sc3c2=O)c1C [Example 136]
IC50 [1, 2]: > 50000 nM | EC50 (SARS-CoV-2-NLuc; [3]): 11100 nM

COc1ccc(Cl)c(-c2cc3[nH]c(=O)n(-c4cncc5sccc45)c(=O)c3s2)c1 [Example 607]
IC50 [1, 4]: 4.52 nM | EC50 (SARS-CoV-2-NLuc; [3]): 4.34 nM

CO[C@H]1CCN(c2ccc3cncc(-n4c(=O)[nH]c5cc(-c6ccccc6Cl)sc5c4=O)c3c2)C1 [Example 398]
IC50 [1, 4]: 3.38 nM | EC50 (SARS-CoV-2-NLuc; [3]): 18.7 nM

O=c1[nH]c2cc(-c3ccccc3-c3ccccc3Cl)ccc2c(=O)n1-c1cncc2ccccc12 [Example 74, 7-(2′-chloro-[1,1′-biphenyl]-2-yl)-3-(isoquinolin-4-yl)quinazoline-2,4(1H,3H)-dione]
IC50 [1, 2]: 470 nM | EC50 (SARS-CoV-2-NLuc; [3]): 711 nM

O=c1[nH]c2cc(-c3ccccc3Cl)sc2c(=O)n1-c1cncc2ccc(N3C[C@H]4C[C@@H]3CO4)cc12 [Example 394]
IC50 [1, 4]: 5.1 nM | EC50 (SARS-CoV-2-NLuc; [3]): 5.75 nM

O=C1Nc2ccc(-c3cccc(Cl)c3-c3ccc4c(=O)n(-c5cncc6ccccc56)c(=O)[nH]c4c3)cc2C1(F)F [Example 173]
IC50 [1, 2]: 380 nM | EC50 (SARS-CoV-2-NLuc; [3]): 650 nM

Cn1ncc2cncc(-n3c(=O)c4sc(-c5cc(F)c(F)cc5Cl)cc4n(CCC#N)c3=O)c21 [Example 790, 3-[6-(2-chloro-4,5-difluoro-phenyl)-3-(1-methylpyrazolo[4,3-c]pyridin-7-yl)-2,4-dioxo-thieno[3,2-d]pyrimidin-1-yl]propanenitrile]
IC50 [1, 4]: 12.6 nM | EC50 (SARS-CoV-2-NLuc; [3]): 14.3 nM

COc1ccc(C#N)c(-c2cc3[nH]c(=O)n(-c4cncc5sccc45)c(=O)c3s2)c1 [Example 608]
IC50 [1, 4]: < 2.54 nM | EC50 (SARS-CoV-2-NLuc; [3]): < 4.97 nM

COc1cc(-c2cc3[nH]c(=O)n(-c4cncc5ccc(C)nc45)c(=O)c3s2)c(Cl)cc1F (single isomer, unassigned) [Example 1034, 6-(2-chloro-4-fluoro-5-methoxyphenyl)-3-(2-methyl-1,6-naphthyridin-8-yl)thieno[3,2-d]pyrimidine-2,4(1H,3H)-dione]
IC50 [1, 4]: 3.13 nM | EC50 (SARS-CoV-2-NLuc; read-out: MPro EC50): 3.04 nM

COc1cc(-c2cc3c(s2)c(=O)n(-c2cncc4cnccc24)c(=O)n3CCC#N)c(Cl)cc1F [Example 917]
IC50 [1, 4]: 7.5 nM | EC50 (SARS-CoV-2-NLuc; [3]): 6.09 nM

COc1cc(-c2nc3[nH]c(=O)n(-c4cncc5ccccc45)c(=O)c3s2)c(Cl)cc1F [Example 704]
IC50 ([1]; MPro IC50, recombinant SARS-CoV-2 Mpro 7.5 nM, fluorogenic peptide substrate 40 μM): 34.4 nM | EC50 (SARS-CoV-2-NLuc; [5]): 248 nM

COc1ccc(Cl)c(-c2ccc3c(=O)n(-c4cncc(C)c4OCC(F)(F)F)c(=O)[nH]c3c2)c1 [Example 375]
IC50 [1, 2]: 345 nM | EC50 (SARS-CoV-2-NLuc; [5]): 632 nM

COc1cc(-c2cc3[nH]c(=O)n(-c4cncc5scc(C)c45)c(=O)c3s2)c(Cl)cc1F (single isomer, unassigned) [Example 1057, 6-(2-chloro-4-fluoro-5-methoxyphenyl)-3-(3-methylthieno[2,3-c]pyridin-4-yl)thieno[3,2-d]pyrimidine-2,4(1H,3H)-dione]
IC50 [1, 4]: 145 nM | EC50 (SARS-CoV-2-NLuc; read-out: MPro EC50): 52.6 nM

COc1cccc(C#N)c1-c1cc2c(s1)c(=O)n(-c1cncc3ccccc13)c(=O)n2CCC#N [Example 820]
IC50 [1, 4]: 5.73 nM | EC50 (SARS-CoV-2-NLuc; [3]): 32.9 nM

COc1ccc(C#N)c(-c2cc3[nH]c(=O)n(-c4cncc5ccccc45)c(=O)c3cc2F)c1 (single isomer, unassigned) [Example 438, 2-(6-fluoro-3-(isoquinolin-4-yl)-2,4-dioxo-1,2,3,4-tetrahydroquinazolin-7-yl)-4-methoxybenzonitrile]
IC50 [1, 4]: < 4.17 nM | EC50 (SARS-CoV-2-NLuc; read-out: MPro EC50): < 11.4 nM

Cc1c(-c2cccc(Cl)c2-c2ccc3c(=O)n(-c4cncc5ccccc45)c(=O)[nH]c3c2)cn2ncnc2c1C [Example 233]
IC50 [1, 2]: 12.3 nM | EC50 (SARS-CoV-2-NLuc; [3]): 26.8 nM

O=c1[nH]c2cc(-c3ccccc3Cl)sc2c(=O)n1-c1cncc2ccc(N3CC(F)(F)C3)cc12 [Example 420]
IC50 [1, 4]: 10.8 nM | EC50 (SARS-CoV-2-NLuc; [3]): 50.9 nM

O=c1[nH]cc(-c2cc3[nH]c(=O)n(-c4cncc5ccccc45)c(=O)c3s2)c(=O)[nH]1 [Example 20]
IC50 [1, 2]: 8620 nM | EC50 (SARS-CoV-2-NLuc; [3]): > 50000 nM

O=c1[nH]c2cc(-c3cc(OC(F)(F)F)ccc3Cl)sc2c(=O)n1-c1cncc2ccccc12 [Example 344]
IC50 [1, 2]: 110 nM | EC50 (SARS-CoV-2-NLuc; [3]): 374 nM

COc1cc(-c2cc3c(s2)c(=O)n(-c2cncc(N4CCOCC4)c2)c(=O)n3CCC#N)c(Cl)cc1F [Example 873]
IC50 [1, 4]: 263 nM | EC50 (SARS-CoV-2-NLuc; [3]): > 1000 nM

Cc1ccccc1-c1cnc2c(=O)n(-c3cncc4ccccc34)c(=O)[nH]c2c1 [Example 46]
IC50 [1, 2]: 216 nM | EC50 (SARS-CoV-2-NLuc; [5]): 989 nM

COc1ccc(Cl)c(-c2cc3[nH]c(=O)n(-c4cncc5cc(OC)ccc45)c(=O)c3s2)c1 [Example 624, 6-(2-chloro-5-methoxyphenyl)-3-(7-methoxyisoquinolin-4-yl)thieno[3,2-d]pyrimidine-2,4(1H,3H)-dione]
IC50 [1, 4]: 88.7 nM | EC50 (SARS-CoV-2-NLuc; [5]): 386 nM

COc1cc(-c2cc3[nH]c(=O)n(-c4cncc5cnn(C6CC6)c45)c(=O)c3s2)c(Cl)cc1F [Example 975, 6-(2-chloro-4-fluoro-5-methoxy-phenyl)-3-(1-cyclopropylpyrazolo[4,3-c]pyridin-7-yl)-1H-thieno[3,2-d]pyrimidine-2,4-dione]
IC50 [1, 4]: 6.33 nM | EC50 (SARS-CoV-2-NLuc; [3]): 10.3 nM

COc1cc(-c2cc3c(s2)c(=O)n(-c2cncc4cnsc24)c(=O)n3CCC#N)c(Cl)cc1F [Example 922]
IC50 [1, 4]: 2.8 nM | EC50 (SARS-CoV-2-NLuc; [3]): > 1000 nM

COc1ccc(Cl)c(-c2cc3[nH]c(=O)n(-c4cncc5ccc(N6CC7C(C6)C7(F)F)cc45)c(=O)c3s2)c1 (centres unmarked) [Example 232]
IC50 [1, 2]: 17.6 nM | EC50 (SARS-CoV-2-NLuc; [3]): 34.9 nM

N#Cc1ccccc1-c1cc2[nH]c(=O)n(-c3cncc4ccccc34)c(=O)c2s1 [Example 530, 2-(3-(isoquinolin-4-yl)-2,4-dioxo-1,2,3,4-tetrahydrothieno[3,2-d]pyrimidin-6-yl)benzonitrile]
IC50 [1, 4]: 12 nM | EC50 (SARS-CoV-2-NLuc; [3]): 84.3 nM

CC(C)Oc1ccc(Cl)c(-c2ccc3c(=O)n(-c4cncc5ccccc45)c(=O)[nH]c3c2)c1 [Example 297]
IC50 [1, 2]: 680 nM | EC50 (SARS-CoV-2-NLuc; [3]): 223 nM
